{"source": "patent US20230321067A1", "about": "“DOSING REGIMEN COMPRISING 3-(1-OXOISOINDOLIN-2-YL)PIPERIDINE-2,6-DIONE DERIVATIVES” (Novartis AG, priority 2020, published 2023)", "key": {"IKZF1 (Ikaros)": {"molecular_target": "T1, IKZF1 (Ikaros) (Homo sapiens, UniProt Q13422)", "T1 construct": "ProLabel; expressed in transfected cells; host or cells: HEK293T", "T1 sequence (Q96SW2 whole entry partner)": "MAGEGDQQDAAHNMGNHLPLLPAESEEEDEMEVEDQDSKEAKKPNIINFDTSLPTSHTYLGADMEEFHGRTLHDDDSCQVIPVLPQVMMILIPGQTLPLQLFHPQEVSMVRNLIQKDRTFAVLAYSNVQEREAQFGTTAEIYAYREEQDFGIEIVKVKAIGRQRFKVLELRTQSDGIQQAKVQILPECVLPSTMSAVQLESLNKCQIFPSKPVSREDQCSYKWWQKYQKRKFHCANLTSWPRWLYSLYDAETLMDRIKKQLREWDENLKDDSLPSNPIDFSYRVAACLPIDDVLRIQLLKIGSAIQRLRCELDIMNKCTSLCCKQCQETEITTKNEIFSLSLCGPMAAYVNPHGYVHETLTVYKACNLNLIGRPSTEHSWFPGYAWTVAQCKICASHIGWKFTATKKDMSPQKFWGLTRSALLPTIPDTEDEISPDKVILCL", "T1 sequence (Q16531 whole entry partner)": "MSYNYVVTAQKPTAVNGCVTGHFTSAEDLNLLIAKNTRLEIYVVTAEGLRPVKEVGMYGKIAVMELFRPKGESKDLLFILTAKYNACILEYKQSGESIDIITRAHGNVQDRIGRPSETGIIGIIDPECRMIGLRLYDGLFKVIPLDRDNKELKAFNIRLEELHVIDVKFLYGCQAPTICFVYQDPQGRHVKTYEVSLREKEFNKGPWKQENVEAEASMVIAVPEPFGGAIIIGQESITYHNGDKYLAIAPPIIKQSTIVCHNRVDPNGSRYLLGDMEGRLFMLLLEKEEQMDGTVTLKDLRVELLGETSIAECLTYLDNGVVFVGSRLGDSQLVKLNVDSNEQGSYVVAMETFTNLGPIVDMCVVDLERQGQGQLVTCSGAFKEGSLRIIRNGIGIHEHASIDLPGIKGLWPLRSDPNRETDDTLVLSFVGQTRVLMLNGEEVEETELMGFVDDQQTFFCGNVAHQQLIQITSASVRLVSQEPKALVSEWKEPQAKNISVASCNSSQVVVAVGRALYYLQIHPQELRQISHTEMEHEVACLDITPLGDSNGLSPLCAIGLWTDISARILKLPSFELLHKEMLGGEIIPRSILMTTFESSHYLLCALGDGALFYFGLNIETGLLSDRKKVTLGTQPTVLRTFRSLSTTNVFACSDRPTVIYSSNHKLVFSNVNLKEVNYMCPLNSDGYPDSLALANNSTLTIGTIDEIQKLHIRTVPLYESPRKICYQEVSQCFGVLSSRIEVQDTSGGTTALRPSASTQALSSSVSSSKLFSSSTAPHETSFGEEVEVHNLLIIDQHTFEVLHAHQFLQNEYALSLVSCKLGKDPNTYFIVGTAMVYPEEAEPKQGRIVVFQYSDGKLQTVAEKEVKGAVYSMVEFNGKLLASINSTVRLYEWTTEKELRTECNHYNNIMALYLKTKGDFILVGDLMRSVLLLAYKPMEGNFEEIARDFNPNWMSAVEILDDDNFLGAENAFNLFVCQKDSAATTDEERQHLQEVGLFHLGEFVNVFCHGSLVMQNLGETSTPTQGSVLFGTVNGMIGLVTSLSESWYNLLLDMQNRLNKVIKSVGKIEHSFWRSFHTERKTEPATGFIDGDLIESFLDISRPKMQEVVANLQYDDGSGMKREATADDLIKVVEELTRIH", "T1 sequence (Q13422 whole entry)": "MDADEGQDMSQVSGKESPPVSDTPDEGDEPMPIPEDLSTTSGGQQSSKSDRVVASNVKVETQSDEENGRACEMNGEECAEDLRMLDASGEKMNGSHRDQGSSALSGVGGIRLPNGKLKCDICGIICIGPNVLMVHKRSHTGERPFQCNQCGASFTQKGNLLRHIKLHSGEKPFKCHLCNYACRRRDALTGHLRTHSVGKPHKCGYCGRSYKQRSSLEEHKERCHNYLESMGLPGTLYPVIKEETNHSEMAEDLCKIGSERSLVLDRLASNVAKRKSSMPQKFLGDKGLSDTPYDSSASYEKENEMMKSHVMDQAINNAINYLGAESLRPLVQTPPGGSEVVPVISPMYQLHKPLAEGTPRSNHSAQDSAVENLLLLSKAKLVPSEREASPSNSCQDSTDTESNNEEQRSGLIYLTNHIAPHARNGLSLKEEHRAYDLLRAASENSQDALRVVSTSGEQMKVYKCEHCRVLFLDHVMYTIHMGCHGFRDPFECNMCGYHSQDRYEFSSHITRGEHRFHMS", "assay": "IKZF1 degradation in vitro (FIG. 1)", "type": "cell-based", "excerpt": "(§1) Although the specific transcriptional targets of IKZF2 remain to be defined, IKZF2 binds to and represses transcription from the IL-2 promoter region (Baine 2013). […] Finally, an in vitro assay recapitulating hallmarks of T cell dysfunction/exhaustion, by sequential TCR stimulation of isolated primary human T cells, was used to test the hypothesis that […] would rescue the exhausted phenotype and enhance Teff cell activity. […] In addition to IKZF1, other known cereblon substrates including translation termination factor G1 to S phase transition 1 (GSPT1) are not degraded by I-57 (FIG. 1)."}, "[1]": {"tested_on": "isolated primary human T cells", "assay": "In vitro T cell dysfunction/exhaustion assay (sequential TCR stimulation)", "type": "cell-based", "excerpt": "as §1"}, "TMEM97": {"molecular_target": "T2, TMEM97 (Homo sapiens, UniProt Q5BJF2)", "T2 construct": "endogenous in cells; host or cells: 293T", "T2 sequence (Q5BJF2 whole entry)": "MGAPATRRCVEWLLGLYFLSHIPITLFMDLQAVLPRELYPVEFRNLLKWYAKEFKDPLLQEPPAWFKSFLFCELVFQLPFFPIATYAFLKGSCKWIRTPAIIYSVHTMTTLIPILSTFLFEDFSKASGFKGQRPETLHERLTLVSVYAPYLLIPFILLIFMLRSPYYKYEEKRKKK", "assay": "Whole cell proteomic analysis in 293T cells: TMEM97", "type": "cell-based", "experimental": "Other potential degradation targets of I-57 were evaluated in 293T cells using whole cell proteomic analysis. […] Subsequent analyses have confirmed that FIZ1 is degraded by about 50% at a 10 μM concentration of I-57 ([I-57 Investigator's Brochure]). […] FIZ1 is expressed in the neural retina where it transcriptionally represses the differentiation of photoreceptors. FIZ1 is also expressed in non-ocular tissues with unknown function."}, "[2]": {"assay": "Repeated daily oral dose PK in cynomolgus monkey", "type": "in vivo", "settings": "unbound; for Cmax / AUC(0-t): plasma, po; for AUC(0-t): read-out: AUC0-24", "experimental": "(§2) The PK/PD relationship of I-57 was further examined in cynomolgus monkeys after repeated daily oral doses of 0.1 and 3 mg/kg. In this study, a cohort of animals were initially immunized with an antigen-adjuvant mixture (KLH/Squalene). The experiment was designed to assess the effect of I-57 exposure, and the resulting IKZF2 degradation, on immune response during immunization to test the hypothesis that IKZF2 degradation would result in increased proliferation of stimulated T-cells. In the experiment, daily I-57 oral treatment was initiated 5 days after immunization. An immunization booster dose was administered on day 15. I-57 plasma concentration and IKZF2 expression (as determined by flow cytometry) in FOXP3+ T cells from PBMCs were determined (FIG. 9A and FIG. 9B)."}, "IKZF2 [3]": {"tested_on": "IKZF2", "assay": "Repeated daily oral dose PD in cynomolgus monkey: IKZF2 in FOXP3+ T cells by flow cytometry", "type": "in vivo", "experimental": "as §2\nConsistent with previous findings, IKZF2 degradation was detected 24 h after the first dose (at day 6) (FIG. 9A and FIG. 9B). The levels of IKZF2 decreased further upon repeat dosing and reached a steady-state level approximately 72 h after initiation of treatment. This level of degradation was maintained throughout the remainder of the treatment (24 days)."}, "[4]": {"assay": "In vivo non-clinical PK, dog", "experimental": "The in vivo non-clinical PK profile of I-57 was investigated in mouse, rat, dog and cynomolgus monkey using I-57 free base. […] After p.o. administration, the absorption of I-57 was rapid with peak blood concentration (Tmax) occurring between 1 and 4 hours. […] In high dose PK and toxicology studies with I-57 the exposures in mouse, rat and monkey increased with dose.\n(§3) The binding to plasma protein of I-57 in vitro was moderate in all species, with an observed difference between rodents (73% in mouse, 76% in rat) and non-rodents (52% in dog and monkey, 54% in human). Blood-to-plasma ratios were in the range of 0.7-1.8 (human 1.1-1.3). […] Based on results with non-radiolabeled I-57 in the dog, a significant amount of unchanged I-57 was renally eliminated (˜20% of dose)."}, "[5]": {"assay": "Blood-to-plasma ratio, across species", "type": "in vitro ADME", "excerpt": "as §3"}, "[6]": {"assay": "In vitro metabolism in liver microsomes and hepatocytes across species", "type": "in vitro ADME", "experimental": "In vivo in the dog, very minor amounts of the N-dealkylation product and products derived from hydrolysis of the glutarimide moiety were detected in plasma. While the contribution of CYP-mediated oxidative metabolism to systemic clearance is unknown, a preliminary assessment of the enzymes involved was conducted using human recombinant CYPs in vitro."}, "CYP2B6": {"molecular_target": "CYP2B6 (Homo sapiens, UniProt P20813)", "sequence (P20813 whole entry)": "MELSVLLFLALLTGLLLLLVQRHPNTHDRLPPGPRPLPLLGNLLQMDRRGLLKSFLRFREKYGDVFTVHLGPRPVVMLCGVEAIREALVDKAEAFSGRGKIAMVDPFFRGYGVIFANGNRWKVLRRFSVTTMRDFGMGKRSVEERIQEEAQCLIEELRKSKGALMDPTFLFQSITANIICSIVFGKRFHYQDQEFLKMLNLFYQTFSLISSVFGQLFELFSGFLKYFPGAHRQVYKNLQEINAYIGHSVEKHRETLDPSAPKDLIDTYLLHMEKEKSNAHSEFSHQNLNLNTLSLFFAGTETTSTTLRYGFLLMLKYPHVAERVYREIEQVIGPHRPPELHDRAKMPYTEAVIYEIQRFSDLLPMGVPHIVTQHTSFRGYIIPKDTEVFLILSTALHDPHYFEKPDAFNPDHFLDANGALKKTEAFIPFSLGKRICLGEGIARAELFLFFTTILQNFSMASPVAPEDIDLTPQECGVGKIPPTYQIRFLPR", "assay": "CYP inhibition: CYP2B6", "type": "in vitro ADME", "settings": "I-57 concentrations of up to 100 μM"}, "CYP3A": {"tested_on": "CYP3A", "assay": "Time-dependent CYP inhibition: CYP3A", "type": "in vitro ADME", "settings": "I-57 concentrations of up to 100 μM"}, "IKZF2 [7]": {"molecular_target": "IKZF2 (Homo sapiens, UniProt Q96SW2+Q9UKS7)", "sequence (Q9UKS7 whole entry, the tested form may be a part)": "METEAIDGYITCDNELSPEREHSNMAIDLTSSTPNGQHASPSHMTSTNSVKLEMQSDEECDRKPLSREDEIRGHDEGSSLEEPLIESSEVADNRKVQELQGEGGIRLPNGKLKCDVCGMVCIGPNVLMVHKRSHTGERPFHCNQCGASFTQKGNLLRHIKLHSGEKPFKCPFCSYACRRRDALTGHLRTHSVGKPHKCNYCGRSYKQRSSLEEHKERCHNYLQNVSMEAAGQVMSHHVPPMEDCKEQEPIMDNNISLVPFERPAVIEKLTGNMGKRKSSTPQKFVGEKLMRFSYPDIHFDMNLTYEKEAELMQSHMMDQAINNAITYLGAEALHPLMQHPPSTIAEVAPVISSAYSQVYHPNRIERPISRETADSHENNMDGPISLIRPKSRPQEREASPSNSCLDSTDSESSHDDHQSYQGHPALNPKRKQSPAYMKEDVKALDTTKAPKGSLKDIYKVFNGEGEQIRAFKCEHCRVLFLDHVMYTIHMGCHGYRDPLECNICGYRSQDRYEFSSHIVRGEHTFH", "sequence (Q96SW2 whole entry, the tested form may be a part)": "as the sequence (Q96SW2 whole entry partner) above", "sequence (Q16531 whole entry partner, the tested form may be a part)": "as the sequence (Q16531 whole entry partner) above", "assay": "IKZF2 degradation in vitro (FIG. 1)", "type": "cell-based", "set-up": "prolabel (ProLabel enzyme-fragment tag); expressed in transfected cells; host or cells: HEK293T", "excerpt": "as §1"}, "[8]": {"settings": "0.1 mg/kg/day, Day 5, Group 2 (only I-57), 0.1 mg/kg/day oral"}, "[9]": {"settings": "0.1 mg/kg/day, Day 5, Group 4 (I-57 + KLH + adjuvant), 0.1 mg/kg/day oral"}, "[10]": {"settings": "0.1 mg/kg/day, Day 29, Group 2 (only I-57), 0.1 mg/kg/day oral"}, "[11]": {"settings": "0.1 mg/kg/day, Day 29, Group 4 (I-57 + KLH + adjuvant), 0.1 mg/kg/day oral"}, "[12]": {"settings": "3 mg/kg/day, Day 5, Group 5 (I-57 + KLH + adjuvant), 3 mg/kg/day oral"}, "[13]": {"settings": "3 mg/kg/day, Day 29, Group 5 (I-57 + KLH + adjuvant), 3 mg/kg/day oral"}, "[14]": {"settings": "Day 5, Group 2 (only I-57), 0.1 mg/kg/day oral"}, "[15]": {"settings": "Day 5, Group 4 (I-57 + KLH + adjuvant), 0.1 mg/kg/day oral"}, "[16]": {"settings": "Day 5, Group 5 (I-57 + KLH + adjuvant), 3 mg/kg/day oral"}, "[17]": {"settings": "Day 29, Group 2 (only I-57), 0.1 mg/kg/day oral"}, "[18]": {"settings": "Day 29, Group 4 (I-57 + KLH + adjuvant), 0.1 mg/kg/day oral"}, "[19]": {"settings": "Day 29, Group 5 (I-57 + KLH + adjuvant), 3 mg/kg/day oral"}}, "note": "Where two headings read alike, the source gives them in different places."}
{"compound": "O=C1CCC(N2Cc3cc(C4CCN(Cc5ccccc5)CC4)ccc3C2=O)C(=O)N1", "note": "(stereo not drawn) [Compound I-57, 3-(5-(1-benzylpiperidin-4-yl)-1-oxoisoindolin-2-yl)piperidine-2,6-dione]", "values": [{"measurement": "degradation of IKZF1", "setting": "IKZF1 (Ikaros)", "value": "not degraded"}, {"measurement": "IKZF2 degradation", "setting": "[1]", "value": "degraded IKZF2 in a dose-dependent manner"}, {"measurement": "interferon gamma production by IKZF2 positive cells", "setting": "[1]", "value": "concomitant increase"}, {"measurement": "degradation of TMEM97", "setting": "TMEM97", "value": "degraded"}, {"measurement": "Cmax", "setting": "[2]; [8]", "value": 7.1, "unit": "ng/mL"}, {"measurement": "AUC(0-t)", "setting": "[2]; [8]", "value": 56.8, "unit": "ng·h/mL"}, {"measurement": "Cmax", "setting": "[2]; [9]", "value": 11, "unit": "ng/mL"}, {"measurement": "AUC(0-t)", "setting": "[2]; [9]", "value": 63.5, "unit": "ng·h/mL"}, {"measurement": "Cmax", "setting": "[2]; [10]", "value": 13.1, "unit": "ng/mL"}, {"measurement": "AUC(0-t)", "setting": "[2]; [10]", "value": 78.1, "unit": "ng·h/mL"}, {"measurement": "Cmax", "setting": "[2]; [11]", "value": 18, "unit": "ng/mL"}, {"measurement": "AUC(0-t)", "setting": "[2]; [11]", "value": 96.4, "unit": "ng·h/mL"}, {"measurement": "Cmax", "setting": "[2]; [12]", "value": 523, "unit": "ng/mL"}, {"measurement": "AUC(0-t)", "setting": "[2]; [12]", "value": 2840, "unit": "ng·h/mL"}, {"measurement": "Cmax", "setting": "[2]; [13]", "value": 504, "unit": "ng/mL"}, {"measurement": "AUC(0-t)", "setting": "[2]; [13]", "value": 3460, "unit": "ng·h/mL"}, {"measurement": "AUC0-24/D", "setting": "[2]; [14]", "value": "567 (ng · h/mL)/(mg/kg)"}, {"measurement": "Cmax/D", "setting": "[2]; [14]", "value": "71.0 (ng/mL)/(mg/kg)"}, {"measurement": "AUC0-24/D", "setting": "[2]; [15]", "value": "634 (ng · h/mL)/(mg/kg)"}, {"measurement": "Cmax/D", "setting": "[2]; [15]", "value": "110 (ng/mL)/(mg/kg)"}, {"measurement": "AUC0-24/D", "setting": "[2]; [16]", "value": "946 (ng · h/mL)/(mg/kg)"}, {"measurement": "Cmax/D", "setting": "[2]; [16]", "value": "175 (ng/mL)/(mg/kg)"}, {"measurement": "AUC0-24/D", "setting": "[2]; [17]", "value": "782 (ng · h/mL)/(mg/kg)"}, {"measurement": "Cmax/D", "setting": "[2]; [17]", "value": "131 (ng/mL)/(mg/kg)"}, {"measurement": "AUC0-24/D", "setting": "[2]; [18]", "value": "965 (ng · h/mL)/(mg/kg)"}, {"measurement": "Cmax/D", "setting": "[2]; [18]", "value": "180 (ng/mL)/(mg/kg)"}, {"measurement": "AUC0-24/D", "setting": "[2]; [19]", "value": "1150 (ng · h/mL)/(mg/kg)"}, {"measurement": "Cmax/D", "setting": "[2]; [19]", "value": "169 (ng/mL)/(mg/kg)"}, {"measurement": "IKZF2 degradation", "setting": "IKZF2 [3]; 0.1 mg/kg dose level, repeated daily", "value": "profound"}, {"measurement": "time after initiation of treatment to steady-state level of IKZF2", "setting": "IKZF2 [3]; repeated daily oral doses", "value": "approximately 72 h"}, {"measurement": "time after the first dose at which IKZF2 degradation was detected", "setting": "IKZF2 [3]; repeated daily oral doses of 0.1 and 3 mg/kg", "value": 24, "unit": "h"}, {"measurement": "bioavailability", "setting": "[4]; blood, po", "value": 91, "unit": "%"}, {"measurement": "unchanged I-57 renally eliminated", "setting": "[4]; non-radiolabeled I-57", "value": "~20 % of dose"}, {"measurement": "blood plasma ratio", "setting": "[5]", "value": "0.7 to 1.8"}, {"measurement": "metabolic stability", "setting": "[6]", "value": "very stable and no appreciable metabolic turnover was observed"}, {"measurement": "inhibition of CYP2B6", "setting": "CYP2B6", "value": "very little and no inhibition"}, {"measurement": "time-dependent inhibition of CYP3A", "setting": "CYP3A", "value": "no apparent time-dependent inhibition"}, {"measurement": "genotoxic potential", "setting": "Genotoxic potential", "value": "no genotoxic or phototoxic potential"}, {"measurement": "degradation of IKZF2", "setting": "IKZF2 [7]", "value": "potent and selective degrader of IKZF2"}]}
